Laboratory results taken from US20240368096A1 (Enanta Pharmaceuticals, Inc., priority 2022, published 2024).

system: HBV; assay: HBV infection in HepG2-NTCP cells (HBeAg AlphaLISA in supernatants); type: cell-based; conditions: Hepatitis B virus, 192 h; HBV infection of HepG2-NTCP cells; HBeAg in supernatants at day 8 post infection; read-out: Cellular EC50
Summary of the method: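 Readout was day-8 supernatant HBeAg by AlphaLISA, with EC50 set against DMSO controls and binned A<0.1 μM, B 0.1-1 μM, C>1 μM. Compounds were added 2 h before HBV (2000 GE/cell, 4% PEG, 0.5% DMSO) to HepG2-NTCP A3 cells; from day 1 medium held 2.5% DMSO.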

Row | SMILES | EC50 [nM]
1 | CN1[C@H](C2CCCCC2)CN(c2ccccc2)c2cc(OCc3cnco3)c(-c3ccc(F)c(C(=O)O)c3)cc2S1(=O)=O [Example 343] | 100 to 1000
2 | CN1[C@H](C2CCCCC2)CN(c2ccccc2)c2cc(OCCc3ccsc3)c(-c3ccc(F)c(C(=O)O)c3)cc2S1(=O)=O [Example 346] | 100 to 1000
3 | CCCCCCCCCCOc1cc2c(cc1-c1ccc(F)c(C(=O)O)c1)S(=O)(=O)N(C)[C@H](C1CCCCC1)CN2c1ccccc1 [Example 354] | 100 to 1000
4 | CN1[C@H](C2CCCCC2)CN(c2ccccc2)c2cc(OCC3CCN(C(=O)OC(C)(C)C)CC3)c(-c3ccc(F)c(C(=O)O)c3)cc2S1(=O)=O [Example 366] | < 100
5 | CN1[C@H](C2CCCCC2)CN(c2ccccc2)c2cc(OCCC3CCN(C(=O)OC(C)(C)C)CC3)c(-c3ccc(F)c(C(=O)O)c3)cc2S1(=O)=O [Example 367] | < 100
6 | CN1[C@H](C2CCCCC2)CN(c2ccccc2)c2cc(OCCCC3CCN(C(=O)OC(C)(C)C)CC3)c(-c3ccc(F)c(C(=O)O)c3)cc2S1(=O)=O [Example 368] | < 100
7 | CN1[C@H](C2CCCCC2)CN(c2ccccc2)c2cc(OC[C@@H]3CCCN(C(=O)OC(C)(C)C)C3)c(-c3ccc(F)c(C(=O)O)c3)cc2S1(=O)=O [Example 369] | 100 to 1000
8 | CN1[C@H](C2CCCCC2)CN(c2ccccc2)c2cc(OCC34CC(CO3)C4)c(-c3ccc(F)c(C(=O)O)c3)cc2S1(=O)=O [Example 371] | < 100
9 | CN1[C@H](C2CCCCC2)CN(c2ccccc2)c2cc(OC3CCCC3)c(-c3ccc(F)c(C(=O)O)c3)cc2S1(=O)=O [Example 373] | < 100
10 | CN1[C@H](C2CCCCC2)CN(c2ccccc2)c2cc(OC3CCCCC3)c(-c3ccc(F)c(C(=O)O)c3)cc2S1(=O)=O [Example 374] | < 100
11 | CN1[C@H](C2CCCCC2)CN(c2ccccc2)c2cc(OC3CC(C)(C)C3)c(-c3ccc(F)c(C(=O)O)c3)cc2S1(=O)=O [Example 375] | < 100
12 | CN1[C@H](C2CCCCC2)CN(c2ccccc2)c2cc(OC3CC4(CCC4)C3)c(-c3ccc(F)c(C(=O)O)c3)cc2S1(=O)=O [Example 377] | < 100
13 | CO[C@H]1C[C@H](Oc2cc3c(cc2-c2ccc(F)c(C(=O)O)c2)S(=O)(=O)N(C)[C@H](C2CCCCC2)CN3c2ccccc2)C1 [Example 378] | 100 to 1000
14 | CO[C@H]1C[C@@H](Oc2cc3c(cc2-c2ccc(F)c(C(=O)O)c2)S(=O)(=O)N(C)[C@H](C2CCCCC2)CN3c2ccccc2)C1 [Example 379] | 100 to 1000
15 | CN1[C@H](C2CCCCC2)CN(c2ccccc2)c2cc(O[C@H]3C[C@@H](F)C3)c(-c3ccc(F)c(C(=O)O)c3)cc2S1(=O)=O [Example 380] | < 100
16 | CN1[C@H](C2CCCCC2)CN(c2ccccc2)c2cc(O[C@H]3C[C@H](F)C3)c(-c3ccc(F)c(C(=O)O)c3)cc2S1(=O)=O [Example 381] | < 100
17 | CN1[C@H](C2CCCCC2)CN(c2ccccc2)c2cc(O[C@H]3C[C@@H](C#N)C3)c(-c3ccc(F)c(C(=O)O)c3)cc2S1(=O)=O [Example 382] | < 100
18 | CN1[C@H](C2CCCCC2)CN(c2ccccc2)c2cc(OC3CC4(CCOCC4)C3)c(-c3ccc(F)c(C(=O)O)c3)cc2S1(=O)=O [Example 383] | 100 to 1000
19 | CN1[C@H](C2CCCCC2)CN(c2ccccc2)c2cc(O[C@H]3C[C@H](C#N)C3)c(-c3ccc(F)c(C(=O)O)c3)cc2S1(=O)=O [Example 384] | 100 to 1000
20 | CN1[C@H](C2CCCCC2)CN(c2ccccc2)c2cc(OC3CC4(CC4)C3)c(-c3ccc(F)c(C(=O)O)c3)cc2S1(=O)=O [Example 385] | < 100
21 | CN1[C@H](C2CCCCC2)CN(c2ccccc2)c2cc(OC3CCC(C)(C)CC3)c(-c3ccc(F)c(C(=O)O)c3)cc2S1(=O)=O [Example 386] | 100 to 1000
22 | CN1[C@H](C2CCCCC2)CN(c2ccccc2)c2cc(OCc3cn(C)cn3)c(-c3ccc(F)c(C(=O)O)c3)cc2S1(=O)=O [Example 389, (R)-5-(3-cyclohexyl-2-methyl-7-((1-methyl-1H-imidazol-4-yl)methoxy)-1,1-dioxido-5-phenyl-2,3,4,5-tetrahydrobenzo[f][1,2,5]thiadiazepin-8-yl)-2-fluorobenzoic acid] | 100 to 1000
23 | CN1[C@H](C2CCCCC2)CN(c2ccccc2)c2cc(OCc3cncn3C)c(-c3ccc(F)c(C(=O)O)c3)cc2S1(=O)=O [Example 390] | > 1000
24 | CN1[C@H](C2CCCCC2)CN(c2ccccc2)c2cc(OCCc3cn(C)cn3)c(-c3ccc(F)c(C(=O)O)c3)cc2S1(=O)=O [Example 392] | > 1000
25 | CN1[C@H](C2CCCCC2)CN(c2ccccc2)c2cc(OC3CCN(C(=O)OC(C)(C)C)CC3)c(-c3ccc(F)c(C(=O)O)c3)cc2S1(=O)=O [Example 393, (R)-5-(7-((1-(tert-butoxycarbonyl)piperidin-4-yl)oxy)-3-cyclohexyl-2-methyl-1,1-dioxido-5-phenyl-2,3,4,5-tetrahydrobenzo[f][1,2,5]thiadiazepin-8-yl)-2-fluorobenzoic acid] | < 100

Second part, the compound after the results:

Row | EC50 [nM] | SMILES
26 | < 100 | CN1[C@H](C2CCCCC2)CN(c2ccccc2)c2cc(OCc3ccccc3)c(-c3ccc(F)c(C(=O)O)c3)cc2S1(=O)=O [Example 332, (R)-5-(7-(benzyloxy)-3-cyclohexyl-2-methyl-1,1-dioxido-5-phenyl-2,3,4,5-tetrahydrobenzo[f][1,2,5]thiadiazepin-8-yl)-2-fluorobenzoic acid]
27 | < 100 | CN1[C@H](C2CCCCC2)CN(c2ccccc2)c2cc(OCc3ccoc3)c(-c3ccc(F)c(C(=O)O)c3)cc2S1(=O)=O [Example 333]
28 | < 100 | CN1[C@H](C2CCCCC2)CN(c2ccccc2)c2cc(OCc3ccco3)c(-c3ccc(F)c(C(=O)O)c3)cc2S1(=O)=O [Example 334]
29 | < 100 | CN1[C@H](C2CCCCC2)CN(c2ccccc2)c2cc(OCc3cccs3)c(-c3ccc(F)c(C(=O)O)c3)cc2S1(=O)=O [Example 335]
30 | < 100 | CC(Oc1cc2c(cc1-c1ccc(F)c(C(=O)O)c1)S(=O)(=O)N(C)[C@H](C1CCCCC1)CN2c1ccccc1)c1ccsc1 (some centres unmarked) [Example 337]
31 | < 100 | Cc1cscc1COc1cc2c(cc1-c1ccc(F)c(C(=O)O)c1)S(=O)(=O)N(C)[C@H](C1CCCCC1)CN2c1ccccc1 [Example 338]
32 | < 100 | Cc1sccc1COc1cc2c(cc1-c1ccc(F)c(C(=O)O)c1)S(=O)(=O)N(C)[C@H](C1CCCCC1)CN2c1ccccc1 [Example 339]
33 | < 100 | CN1[C@H](C2CCCCC2)CN(c2ccccc2)c2cc(OCc3nccs3)c(-c3ccc(F)c(C(=O)O)c3)cc2S1(=O)=O [Example 340]
34 | < 100 | CN1[C@H](C2CCCCC2)CN(c2ccccc2)c2cc(OCc3cscn3)c(-c3ccc(F)c(C(=O)O)c3)cc2S1(=O)=O [Example 341]
35 | < 100 | Cc1cnc(COc2cc3c(cc2-c2ccc(F)c(C(=O)O)c2)S(=O)(=O)N(C)[C@H](C2CCCCC2)CN3c2ccccc2)s1 [Example 342]
36 | < 100 | CN1[C@H](C2CCCCC2)CN(c2ccccc2)c2cc(OCc3ncco3)c(-c3ccc(F)c(C(=O)O)c3)cc2S1(=O)=O [Example 344]
37 | < 100 | CN1[C@H](C2CCCCC2)CN(c2ccccc2)c2cc(OCCc3ccco3)c(-c3ccc(F)c(C(=O)O)c3)cc2S1(=O)=O [Example 345]
38 | < 100 | CN1[C@H](C2CCCCC2)CN(c2ccccc2)c2cc(OCCCc3cscn3)c(-c3ccc(F)c(C(=O)O)c3)cc2S1(=O)=O [Example 347]
39 | < 100 | CCOc1cc2c(cc1-c1ccc(F)c(C(=O)O)c1)S(=O)(=O)N(C)[C@H](C1CCCCC1)CN2c1ccccc1 [Example 349]
40 | < 100 | CCCCOc1cc2c(cc1-c1ccc(F)c(C(=O)O)c1)S(=O)(=O)N(C)[C@H](C1CCCCC1)CN2c1ccccc1 [Example 350]
41 | < 100 | CCCCCOc1cc2c(cc1-c1ccc(F)c(C(=O)O)c1)S(=O)(=O)N(C)[C@H](C1CCCCC1)CN2c1ccccc1 [Example 351]
42 | < 100 | CCCCCCOc1cc2c(cc1-c1ccc(F)c(C(=O)O)c1)S(=O)(=O)N(C)[C@H](C1CCCCC1)CN2c1ccccc1 [Example 352]
43 | < 100 | CCCCC[C@@H](C)Oc1cc2c(cc1-c1ccc(F)c(C(=O)O)c1)S(=O)(=O)N(C)[C@H](C1CCCCC1)CN2c1ccccc1 [Example 355]
44 | < 100 | CCCCC[C@H](C)Oc1cc2c(cc1-c1ccc(F)c(C(=O)O)c1)S(=O)(=O)N(C)[C@H](C1CCCCC1)CN2c1ccccc1 [Example 356]
45 | < 100 | CC(C)Oc1cc2c(cc1-c1ccc(F)c(C(=O)O)c1)S(=O)(=O)N(C)[C@H](C1CCCCC1)CN2c1ccccc1 [Example 357]
46 | < 100 | CC(C)COc1cc2c(cc1-c1ccc(F)c(C(=O)O)c1)S(=O)(=O)N(C)[C@H](C1CCCCC1)CN2c1ccccc1 [Example 358]
47 | < 100 | CC(C)CCOc1cc2c(cc1-c1ccc(F)c(C(=O)O)c1)S(=O)(=O)N(C)[C@H](C1CCCCC1)CN2c1ccccc1 [Example 359]
48 | < 100 | CC(C)CCCOc1cc2c(cc1-c1ccc(F)c(C(=O)O)c1)S(=O)(=O)N(C)[C@H](C1CCCCC1)CN2c1ccccc1 [Example 360]
49 | < 100 | CC(C)CCCCOc1cc2c(cc1-c1ccc(F)c(C(=O)O)c1)S(=O)(=O)N(C)[C@H](C1CCCCC1)CN2c1ccccc1 [Example 361]
50 | < 100 | CC(C)CCCCCOc1cc2c(cc1-c1ccc(F)c(C(=O)O)c1)S(=O)(=O)N(C)[C@H](C1CCCCC1)CN2c1ccccc1 [Example 362]
51 | < 100 | CN1[C@H](C2CCCCC2)CN(c2ccccc2)c2cc(OCC3CC(F)(F)C3)c(-c3ccc(F)c(C(=O)O)c3)cc2S1(=O)=O [Example 363]
52 | < 100 | CN1[C@H](C2CCCCC2)CN(c2ccccc2)c2cc(OCC3CCC3)c(-c3ccc(F)c(C(=O)O)c3)cc2S1(=O)=O [Example 364]
53 | < 100 | CN1[C@H](C2CCCCC2)CN(c2ccccc2)c2cc(OCCCCO)c(-c3ccc(F)c(C(=O)O)c3)cc2S1(=O)=O [Example 365]
